Source: patent US20250228865A1, “COMPOUNDS FOR ENHANCING READ THROUGH OF GENES CONTAINING PREMATURE TERMINATION CODONS AND METHODS FOR MAKING AND USING THE SAME” (Sanofi US Services Inc., priority 2022, published 2025)

Assays:
[1] = test system: recombinant human CFTR carrying the premature stop codon (PTC) mutation R1162X; experiment: CFTR-PTC mutant translation readthrough, Nanoluc tagged CFTR luminescence (R1162X cell line); type: cell-based; conditions: for CFTR R1162X ACTIVITY Fold 10 μM G-418: fold over 10 μM G-418, in combination with G418; for EC50: in combination with G418, 16HBE cells, read-out: CFTR R1162X ACTIVITY EC50
Method in brief: (§1)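 Readthrough is the 48 h compound-induced luminescence increase scaled to that of maximal G418 (125-250 μM). Compounds run from 50 μM final in 2-fold steps, ±10 μM G418, on 16HBE lines carrying Nanoluc-tagged CFTR G542X (extracellular loop 4 tag) or R1162X (C-terminal tag), with 3 μM VX-809 present.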

[2] = test system: recombinant human CFTR carrying the premature stop codon (PTC) mutation G542X; experiment: CFTR-PTC mutant translation readthrough, Nanoluc tagged CFTR luminescence (G542X cell line); type: cell-based; conditions: in combination with G418, G542X cell line; for CFTR G542X ACTIVITY Fold 10 μM G-418: fold over 10 μM G-418; for EC50: 16HBE cells
Method in brief: as §1

Row | SMILES | CFTR R1162X ACTIVITY Fold 10 μM G-418 [1] | EC50 [1] [µM] | CFTR G542X ACTIVITY Fold 10 μM G-418 [2] | EC50 [2] [µM]
1 | Cc1cccc(C)c1COc1ccc(N2CC(CO)OC2=O)cc1 (stereo not drawn) [3-[4-[(2,6-dimethylphenyl)methoxy]phenyl]-5-(hydroxymethyl)oxazolidin-2-one] | A′ (A′ = ≥10X) | > 10 | B′ (B′ = ≥5X to <10X) | 1 to 10
2 | NCc1ccn(-c2ccc(OCc3c(Cl)cccc3Cl)cc2)n1 [[1-[4-[(2,6-dichlorophenyl)methoxy]phenyl]pyrazol-3-yl]methanamine] | A′ (A′ = ≥10X) | 1 to 10 | B′ (B′ = ≥5X to <10X) | 1 to 10
3 | O=C1OC(CO)CN1c1ccc(OCc2c(Cl)ccc(F)c2Cl)cc1 (stereo not drawn) | B′ (B′ = ≥5X to <10X) | 1 to 10 | A′ (A′ = ≥10X) | 1 to 10
4 | Cc1cccc(OC(F)F)c1COc1ccc(-n2cnc(CO)n2)cc1 | B′ (B′ = ≥5X to <10X) | 1 to 10 | B′ (B′ = ≥5X to <10X) | 1 to 10
5 | OCc1ccn(-c2ncc(OC(F)(F)c3c(Cl)cccc3Cl)cn2)n1 |  | > 10 |  | > 10
6 | COCC1CN(c2ccc(OCc3c(Cl)cccc3Cl)cc2)C(=O)N1 (stereo not drawn) [1-[4-[(2,6-dichlorophenyl)methoxy]phenyl]-4-(methoxymethyl)imidazolidin-2-one] | B′ (B′ = ≥5X to <10X) | 1 to 10 | B′ (B′ = ≥5X to <10X) | 1 to 10
7 | Cc1cccc(C(F)(F)F)c1COc1cnc(-n2ccc(CO)n2)nc1 | A′ (A′ = ≥10X) | < 1 | A′ (A′ = ≥10X) | < 1
8 | NC(=O)C1CN(c2ncc(OCc3c(Cl)cccc3Cl)cn2)C1 [1-[5-[(2,6-dichlorophenyl)methoxy]pyrimidin-2-yl]azetidine-3-carboxamide] | A′ (A′ = ≥10X) | 1 to 10 | B′ (B′ = ≥5X to <10X) | 1 to 10
9 | O=C(O)C1CN(c2ccc(OCc3c(Cl)cccc3C(F)(F)F)cn2)CCO1 (stereo not drawn) | C′ (C′ = <5X) | > 10 | C′ (C′ = <5X) | 1 to 10
10 | NCc1nnc(-c2ccc(OCc3c(Cl)cccc3Cl)cc2)o1 [Example 226, [5-[4-[(2,6-dichlorophenyl)methoxy]phenyl]-1,3,4-oxadiazol-2-yl]methanamine] | B′ (B′ = ≥5X to <10X) | 1 to 10 | B′ (B′ = ≥5X to <10X) | 1 to 10
11 | NC1(CO)CCN(c2ncc(OCc3c(Cl)cccc3C(F)(F)F)cn2)C1 (stereo not drawn) | B′ (B′ = ≥5X to <10X) | 1 to 10 | A′ (A′ = ≥10X) | > 10
12 | O=c1[nH]ncc2cc(OCc3c(Cl)cccc3Cl)ccc12 [6-[(2,6-dichlorophenyl)methoxy]-2H-phthalazin-1-one] | A′ (A′ = ≥10X) | 1 to 10 | B′ (B′ = ≥5X to <10X) | > 10
13 | O=C1OC(CO)CN1c1ncc(OCc2c(Cl)cccc2C(F)(F)F)cn1 (stereo not drawn) | A′ (A′ = ≥10X) | 1 to 10 | A′ (A′ = ≥10X) | 1 to 10
14 | CC1(C)NC(=O)N(c2ccc(OCc3c(Cl)cccc3C(F)(F)F)cc2)C1=O | A′ (A′ = ≥10X) | 1 to 10 | A′ (A′ = ≥10X) | < 1
15 | CC1CC(CO)CN1c1ncc(OCc2c(Cl)cccc2Cl)cn1 (stereo not drawn) | A′ (A′ = ≥10X) | 1 to 10 | A′ (A′ = ≥10X) | 1 to 10
16 | OCc1cn(-c2ncc(OCc3c(Cl)cccc3C(F)(F)F)cn2)cn1 | C′ (C′ = <5X) | < 1 | C′ (C′ = <5X) | < 1
17 | NC(=O)c1ncn(-c2ncc(OCc3c(Cl)cccc3Cl)cn2)n1 [1-[5-[(2,6-dichlorophenyl)methoxy]pyrimidin-2-yl]-1,2,4-triazole-3-carboxamide] |  | > 10 | C′ (C′ = <5X) | 1 to 10
18 | Cc1cccc(C(F)(F)F)c1COc1ccc(-n2ncc(CO)n2)nc1 | A′ (A′ = ≥10X) | < 1 | A′ (A′ = ≥10X) | < 1
19 | CN1C(=O)CN(c2ccc(OCc3c(Cl)cccc3C(F)(F)F)cn2)C1=O | A′ (A′ = ≥10X) | < 1 | A′ (A′ = ≥10X) | < 1
20 | CNC(=O)N1CCN(c2ncc(OCc3c(Cl)cccc3Cl)cn2)CC1 | A′ (A′ = ≥10X) | < 1 | A′ (A′ = ≥10X) | < 1
21 | CN1CCN(c2ncc(OCc3c(Cl)cccc3Cl)cn2)CC1=O [4-[5-[(2,6-dichlorophenyl)methoxy]pyrimidin-2-yl]-1-methyl-piperazin-2-one] | A′ (A′ = ≥10X) | 1 to 10 | A′ (A′ = ≥10X) | 1 to 10
22 | FC(F)(F)c1cccc(Cl)c1COc1cnc(-n2cc(-c3ccccn3)nn2)nc1 | A′ (A′ = ≥10X) | < 1 | A′ (A′ = ≥10X) | < 1
23 | Cc1cccc(C(F)(F)F)c1COc1cnc(N2CCC(O)C(F)(F)C2)nc1 (stereo not drawn) | A′ (A′ = ≥10X) | < 1 | C′ (C′ = <5X) | < 1
24 | Cc1cccc(C(F)(F)F)c1COc1cnc(N2CC(=O)N(C)C2=O)nc1 | A′ (A′ = ≥10X) | 1 to 10 | A′ (A′ = ≥10X) | 1 to 10
